Assay results from patent publication US20250241965A1, “METHOD TO IMPROVE CELL VIABILITY OF CARDIOMYOCYTES” (UNIVERSITY OF WASHINGTON, priority 2022, published 2025).

Key:
[1] = tested on: pluripotent stem cells (PSCs) differentiating to cardiomyocytes; assay: Cell yield during differentiation of pluripotent stem cells to cardiomyocytes in suspension culture; assay type: cell-based; conditions: for cell counts (cells/mL) during differentiation, FIG. 4: versus CBP conditions
Procedure: FIG. 1A depicts the timeline, base media, media supplements, small molecules for the differentiation of pluripotent stem cells to cardiomyocytes. Addition of CHIR, Wnt agonist, occurs at Day 3 of differentiation, while the Wnt antagonist Wiki, is added either 48 or 44 hours after CHIR addition. The timing from CHIR to WIKI addition is optimized for each cell line and/or reagent change to most efficiently induce cardiomyocye differentiation.
(§1) FIG. 3 (top) illustrates the current best practice (CBP) differentiation methodology including timeline, base media, media supplements and the addition of small molecules. FIG. 3 (bottom) the experimental set up to test three different methodologies designed to improve the cell yield in comparison to CBP (1). To improve the total cell yield, adding an additional media change on the day just prior to the initiation of significant cell loss (2), or the addition of ROCK inhibitor at the points of small molecule addition (CHIR or WIKI, respectively) were tested. To monitor for the fate of cells in the experiment, the cultures were monitored for cell counts (both in single cell suspension and in aggregates), glucose, lactate, and pH using a Blood Gas Analyzer (BGA); apoptosis was analyzed by AnnexinV staining; additionally, mesoderm formation was monitored by flow cytometry for CD56 and PDGFRa to determine if the addition of ROCK inhibitor changed the developmental trajectory of the cells.
FIG. 4 (top) once again illustrates the experimental design as described in […], for reference. FIG. 4 (bottom) indicates the cell counts at multiple time-points from each condition during the differentiation of experiment #19. 19-1 is CBP conditions, 19-2 is media change at day 6 conditions (including the addition of Wiki 5 uM), 19-3 is conditions that received ROCK inhibitor at the time of small molecule addition. At day 6 of differentiation cells numbers in condition 19-3 were elevated to the point of needing to double the media volume and therefore cells were split into 19-3A and 19-3B.
involves multiple steps of PSC expansion and differentiation to the desired lineage. As presented here PSCs are thawed from a suspension PSC bank (PMID: 26318718) and aggregated in suspension culture, with the addition of the ROCK inhibitor Y-27632, shown to permit survival of dissociated PSCs (PMID: 17529971). Following expansion, the cells are induced to differentiate to mesoderm and then cardiomyocytes by modulating Wnt signaling using CHIR99021 to induce mesoderm (PMID: 23257984), followed small molecule Wnt inhibitor, WIKI4 (PMID: 23227175) to specify mesoderm to the cardiomyocyte lineage (FIG. 3).
loss during the addition of CHIR99021 and WIKI4. […] Additionally, at differentiation day 13, the culture with the addition of Y-27632 yielded nearly 4× more cardiomyocytes than cultures without. Subsequently Y-27632 was added to all cultures during the differentiation (FIG. 4).

[2] = tested on: pluripotent stem cells (PSCs) differentiating to cardiomyocytes; assay: Apoptosis by AnnexinV staining (flow cytometry) during cardiomyocyte differentiation; assay type: cell-based
From the text: as §1
FIG. 6 illustrates that apoptosis correlates with the cell loss detected in CBP conditions (19-1) and media change (including Wiki) conditions (19-2), in comparison to ROCK inhibitor conditions (19-3). This illustration also includes an additional experimental set which includes addition of ROCK inhibitor at time-points of small molecule addition (20-1), or CBP conditions (20-2). […]

| Compound | cell loss by end of culture, FIG. 1B ([1]; additional WIKI4 on day 6 of differentiation, 8 uM CHIR) | cell counts (cells/mL) during differentiation, FIG. 4 ([1]; condition 19-2: media change at day 6 including addition of Wiki 5 uM) | cells/mL in the final culture, FIG. 1B ([1]; media change with no additional WIKI4 on day 6, Day 20 of differentiation) | AnnexinV staining (apoptosis), FIG. 6 ([2]; condition 19-2: media change at day 6 including Wiki) | yield of pre-cardiomyocytes ([1]; Y-27632 added in combination with CHIR99021 and WIKI4, measured at day 6 of differentiation (4.7E5 cells/mL without)) [cells/mL] | cell counts (cells/mL) during differentiation, FIG. 4 ([1]; condition 19-3: ROCK inhibitor at the time of small molecule (CHIR, WIKI) addition) | cardiomyocyte yield relative to cultures without Y-27632 ([1]; differentiation day 13) [×] | yield of pre-cardiomyocytes relative to culture without Y-27632 ([1]; in combination with CHIR99021 and WIKI4, day 6 of differentiation) | AnnexinV staining (apoptosis), FIG. 6 ([2]; condition 19-3: ROCK inhibitor at time-points of small molecule addition) |
| --- | --- | --- | --- | --- | --- | --- | --- | --- | --- |
| COc1ccc(-n2c(SCCCN3C(=O)c4cccc5cccc(c45)C3=O)nnc2-c2ccncc2)cc1 [WIKI4] | extensive loss of cells | even more rapid loss of cells | roughly 8E5 cells/mL | high | – | – | – | – | – |
| C[C@@H](N)[C@H]1CC[C@H](C(=O)Nc2ccncc2)CC1 [Y-27632] | – | – | – | – | 1.1E6 | significantly higher cell numbers | ~4 | greater than double the yield | low |
